Experiments:
[1] = target: ATR kinase (Homo sapiens (Human), UniProt Q13535); experiment: ATR inhibition assay (mobility shift assay, phosphorylation of FAM-RAD17); format: biochemical; conditions: ATR kinase (Eurofins), substrate FAM-RAD17, mobility shift
Protocol: Assay 1: ATR Inhibition Assay
Detection of ATR kinase activity utilized the Mobility shift assay to measure the phosphorylation of the substrate protein FAM-RAD17 (GL, Cat. No. 514318, Lot. No. P19042-MJ524315). The assay was developed and conducted at Chempartner. All the test compounds were dissolved in 100% DMSO at concentration of 20 mM, then prepare compounds and conducted the assay as follows: • 1) Transfer 80 μl 20 mM compound to 40 μl of 100% DMSO in a 96-well plate. • 2) Serially dilute the compound by transferring 20 μl to 60 μl of 100% DMSO in the next well and so forth for a total of 10 concentrations. • 3) Add 100 μl of 100% DMSO to two empty wells for no compound control and no enzyme control in the same 96-well plate. Mark the plate as source plate. • 4) Transfer 40 μl of compound from source plate to a new 384-well plate as the intermediate plate. • 5) Transfer 60 nl compounds to assay plate by Echo. • 6) Add ATR kinase (Eurofins, Cat. No. 14-953, Lot. No. D14 JP007N) into Kinase base buffer (50 mM HEPES, pH 7.5; 0.0015% Brij-35; 0.01% Triton) to prepare 2× enzyme solution, then add 10 μl of 2× enzyme solution to each well of the 384-well assay plate, incubate at room temperature for 10 min. • 7) Add FAM-RAD17 and ATP (Sigma, Cat. No. A7699-1G, CAS No. 987-65-5) in the kinase base buffer to prepare 2×peptide solution, then add 10 μl to the assay plate. • 8) Incubate at 28° C. for specified period of time. Add 40 μl of stop buffer (100 mM HEPES, pH 7.5; 0.015% Brij-35; 0.2% Coating Reagent #3; 50 mM EDTA) to stop reaction. • 9) Collect data on Caliper. Convert conversion values to inhibition values.
Percent inhibition=(max−conversion)/(max−min)*100 wherein “max” stands for DMSO control; “min” stands for low control.
Fit the data in XLFit excel add-in version 5.4.0.8 to obtain IC50 values. Equation used is:
Y=Bottom+(Top−Bottom)/(1+(IC50/X)^HillSlope) wherein X means concentration in a format not transformed to logarithms.

[2] = test system: LoVo (CCL-229) cells; experiment: Tumor cell anti-proliferation assay (CTG assay); format: cell-based; conditions: LoVo human colorectal cancer cells, 96 h, CellTiter-Glo
Method in brief: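 Cells seeded and held 20–24 h, then exposed to 3-fold serial dilutions of compound (final DMSO 0.5%) for 96 h at 37 °C, 5% CO2. Viability measured by CellTiter-Glo luminescence; IC50 and GI50 from a 4-parameter logistic fit.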

ATR kinase, sequence (Q13535 whole entry): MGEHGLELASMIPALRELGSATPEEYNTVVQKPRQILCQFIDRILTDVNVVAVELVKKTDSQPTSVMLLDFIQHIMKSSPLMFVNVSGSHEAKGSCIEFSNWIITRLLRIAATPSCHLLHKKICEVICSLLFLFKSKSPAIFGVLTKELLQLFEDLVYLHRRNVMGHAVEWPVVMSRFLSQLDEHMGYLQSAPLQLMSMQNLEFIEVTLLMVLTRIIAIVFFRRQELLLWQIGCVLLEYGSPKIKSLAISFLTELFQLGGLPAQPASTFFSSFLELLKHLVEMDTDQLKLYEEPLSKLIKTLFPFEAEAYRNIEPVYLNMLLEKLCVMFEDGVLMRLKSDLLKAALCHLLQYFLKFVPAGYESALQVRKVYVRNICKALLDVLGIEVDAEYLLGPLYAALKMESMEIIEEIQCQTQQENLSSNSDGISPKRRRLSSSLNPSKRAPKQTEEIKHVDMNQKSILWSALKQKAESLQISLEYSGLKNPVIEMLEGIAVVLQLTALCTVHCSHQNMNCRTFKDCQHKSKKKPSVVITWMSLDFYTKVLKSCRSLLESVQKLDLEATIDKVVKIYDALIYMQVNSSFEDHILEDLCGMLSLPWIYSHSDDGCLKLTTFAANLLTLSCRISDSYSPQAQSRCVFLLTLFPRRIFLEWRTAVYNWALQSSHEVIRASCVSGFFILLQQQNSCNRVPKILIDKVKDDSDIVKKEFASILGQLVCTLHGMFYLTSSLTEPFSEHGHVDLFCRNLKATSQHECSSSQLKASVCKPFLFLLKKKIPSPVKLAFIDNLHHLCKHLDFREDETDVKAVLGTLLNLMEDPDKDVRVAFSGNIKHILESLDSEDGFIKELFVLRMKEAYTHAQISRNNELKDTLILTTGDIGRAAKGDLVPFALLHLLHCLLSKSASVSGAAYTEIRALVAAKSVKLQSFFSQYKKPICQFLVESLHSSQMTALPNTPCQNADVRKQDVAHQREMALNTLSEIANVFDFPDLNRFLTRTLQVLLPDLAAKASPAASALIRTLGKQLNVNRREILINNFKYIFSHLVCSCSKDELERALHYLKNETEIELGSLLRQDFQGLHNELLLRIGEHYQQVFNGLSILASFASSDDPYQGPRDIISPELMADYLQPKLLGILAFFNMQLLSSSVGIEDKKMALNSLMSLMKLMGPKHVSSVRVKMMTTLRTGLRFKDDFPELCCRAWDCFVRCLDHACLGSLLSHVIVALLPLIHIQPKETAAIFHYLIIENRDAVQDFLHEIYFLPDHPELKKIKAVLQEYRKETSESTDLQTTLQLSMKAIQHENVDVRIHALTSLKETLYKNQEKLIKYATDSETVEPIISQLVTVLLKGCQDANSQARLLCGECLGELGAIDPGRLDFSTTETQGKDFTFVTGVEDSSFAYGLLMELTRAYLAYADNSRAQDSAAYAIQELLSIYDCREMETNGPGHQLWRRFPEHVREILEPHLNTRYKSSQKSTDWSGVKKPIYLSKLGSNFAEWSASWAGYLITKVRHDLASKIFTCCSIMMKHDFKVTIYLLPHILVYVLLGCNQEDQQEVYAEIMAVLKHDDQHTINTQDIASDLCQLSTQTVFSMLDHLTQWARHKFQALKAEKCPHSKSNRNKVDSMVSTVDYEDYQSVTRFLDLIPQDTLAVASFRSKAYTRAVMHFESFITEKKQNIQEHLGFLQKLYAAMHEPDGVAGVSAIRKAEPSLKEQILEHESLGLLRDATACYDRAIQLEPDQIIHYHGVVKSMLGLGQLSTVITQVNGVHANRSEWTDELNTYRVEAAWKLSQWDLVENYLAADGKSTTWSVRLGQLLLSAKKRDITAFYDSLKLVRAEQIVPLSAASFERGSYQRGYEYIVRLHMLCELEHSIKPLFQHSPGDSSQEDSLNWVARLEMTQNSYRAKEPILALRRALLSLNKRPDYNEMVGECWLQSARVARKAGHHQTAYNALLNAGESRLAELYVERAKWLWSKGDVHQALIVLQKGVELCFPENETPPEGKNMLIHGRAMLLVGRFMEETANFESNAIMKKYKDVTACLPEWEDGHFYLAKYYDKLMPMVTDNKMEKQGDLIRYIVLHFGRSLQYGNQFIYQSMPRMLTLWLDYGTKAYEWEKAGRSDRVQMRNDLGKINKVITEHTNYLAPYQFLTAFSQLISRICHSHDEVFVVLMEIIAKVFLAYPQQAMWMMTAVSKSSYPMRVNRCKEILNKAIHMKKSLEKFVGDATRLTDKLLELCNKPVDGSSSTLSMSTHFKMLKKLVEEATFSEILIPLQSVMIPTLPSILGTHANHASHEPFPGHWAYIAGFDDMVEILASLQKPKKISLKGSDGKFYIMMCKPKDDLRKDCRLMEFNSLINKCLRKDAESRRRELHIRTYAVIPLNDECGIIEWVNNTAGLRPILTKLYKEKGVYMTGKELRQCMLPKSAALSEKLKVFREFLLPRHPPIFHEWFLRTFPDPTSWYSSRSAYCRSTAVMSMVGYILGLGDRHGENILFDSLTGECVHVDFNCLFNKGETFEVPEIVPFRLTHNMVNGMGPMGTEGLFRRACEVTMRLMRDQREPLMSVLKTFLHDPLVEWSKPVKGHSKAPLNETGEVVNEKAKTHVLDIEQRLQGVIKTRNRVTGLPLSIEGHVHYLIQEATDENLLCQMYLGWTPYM
ATR kinase, sequence (Q8WXE1 whole entry partner): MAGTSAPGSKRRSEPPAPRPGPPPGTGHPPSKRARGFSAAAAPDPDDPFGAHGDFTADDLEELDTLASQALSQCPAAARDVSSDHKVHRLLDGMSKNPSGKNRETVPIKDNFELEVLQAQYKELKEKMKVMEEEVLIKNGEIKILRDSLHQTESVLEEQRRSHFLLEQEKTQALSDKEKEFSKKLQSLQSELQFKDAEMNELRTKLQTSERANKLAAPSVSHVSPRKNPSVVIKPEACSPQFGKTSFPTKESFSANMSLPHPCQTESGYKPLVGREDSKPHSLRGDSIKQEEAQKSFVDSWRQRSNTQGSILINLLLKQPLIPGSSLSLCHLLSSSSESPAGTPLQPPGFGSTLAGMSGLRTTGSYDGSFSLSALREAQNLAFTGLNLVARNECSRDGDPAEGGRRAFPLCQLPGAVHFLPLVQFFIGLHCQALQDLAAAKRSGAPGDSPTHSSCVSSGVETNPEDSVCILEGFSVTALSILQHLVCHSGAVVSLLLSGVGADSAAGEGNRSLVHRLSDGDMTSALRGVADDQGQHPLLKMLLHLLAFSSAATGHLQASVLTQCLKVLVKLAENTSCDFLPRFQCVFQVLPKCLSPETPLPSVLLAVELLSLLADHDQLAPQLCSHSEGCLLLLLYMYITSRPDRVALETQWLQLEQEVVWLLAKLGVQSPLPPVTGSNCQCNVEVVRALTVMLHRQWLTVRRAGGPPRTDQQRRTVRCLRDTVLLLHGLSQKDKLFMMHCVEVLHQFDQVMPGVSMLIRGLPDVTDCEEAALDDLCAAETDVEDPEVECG

| Compound | IC50 [1] | IC50 [2] |
| --- | --- | --- |
| C[C@@H]1COCCN1c1cc(C2(S(C)(=O)=O)CC2)c2ncc(-c3ccn[nH]3)n2n1 [Example 22, (R)-3-methyl-4-(8-(1-(methylsulfonyl)cyclopropyl)-3-(1H-pyrazol-5-yl)imidazo[1,2-b]pyridazin-6-yl)morpholine] | < 100 nM | 622 nM |
| Cc1cc(-c2ncc3c(C4(S(C)(=O)=O)CC4)cc(N4CCOC[C@H]4C)nn23)[nH]n1 [Example 31, (R)-3-methyl-4-(7-(3-methyl-1H-pyrazol-5-yl)-4-(1-(methylsulfonyl)cyclopropyl)imidazo[1,5-b]pyridazin-2-yl)morpholine] | < 100 nM | 84 nM |
| C[C@@H]1COCCN1c1cc(C(C)(C)C#N)c2snc(-c3ccn[nH]3)c2n1 [Example 53, (R)-2-methyl-2-(5-(3-methylmorpholino)-3-(1H-pyrazol-5-yl)isothiazolo [4,5-b]pyridin-7-yl)propanenitrile] | < 100 nM | 12.8 nM |
| C[C@@H]1COCCN1c1cc(C2(S(C)(=O)=O)CC2)n2ncc(-c3ccn[nH]3)c2n1 [Example 5, (R)-3-methyl-4-(7-(1-(methylsulfonyl)cyclopropyl)-3-(1H-pyrazol-5-yl)pyrazolo[1,5-a]pyrimidin-5-yl)morpholine] | < 100 nM | 516 nM |
| C[C@@H]1COCCN1c1cc(C2(C#N)CCCCC2)c2cnc(-c3ccn[nH]3)n2n1 [Example 60, (R)-1-(2-(3-methylmorpholino)-7-(1H-pyrazol-5-yl)imidazo[1,5-b]pyridazin-4-yl)cyclohexane-1-carbonitrile] | < 100 nM | 4.1 nM |
| Cc1cc(-c2nc(Cl)c3c(-c4ccnn4C)cc(N4CCOC[C@H]4C)nn23)[nH]n1 [Example 62, (3R)-4-[5-chloro-4-(1-methyl-1H-pyrazol-5-yl)-7-(3-methyl-1H-pyrazol-5-yl)imidazo[1,5-b]pyridazin-2-yl]-3-methylmorpholine] | < 100 nM | 14.6 nM |
| Cc1cc(-c2ncc3c(C4(C#N)CC4)cc(N4CCOC[C@H]4C)nn23)[nH]n1 [Example 63, (R)-1-(7-(3-methyl-1H-pyrazol-5-yl)-2-(3-methylmorpholino)imidazo[1,5-b]pyridazin-4-yl)cyclopropane-1-carbonitrile] | < 100 nM | 38.9 nM |
| Cc1cc(-c2cnn3c(C4(S(C)(=O)=O)CC4)cc(N4CCOC[C@H]4C)nc23)[nH]n1 [Example 11, (R)-3-methyl-4-(3-(3-methyl-1H-pyrazol-5-yl)-7-(1-(methylsulfonyl)cyclopropyl)pyrazolo[1,5-a]pyrimidin-5-yl)morpholine] | < 100 nM | 384 nM |
| Cc1cc(-c2nsc3c(-c4c(C)nnn4C)cc(N4CCOC[C@H]4C)nc23)[nH]n1 [Example 48, (R)-4-(7-(1,4-dimethyl-1H-1,2,3-triazol-5-yl)-3-(3-methyl-1H-pyrazol-5-yl)isothiazolo[4,5-b]pyridin-5-yl)-3-methylmorpholine] | < 100 nM | 33.3 nM |
| C[C@@H]1COCCN1c1cc(C2(C#N)CCCCC2)c2snc(-c3ccn[nH]3)c2n1 [Example 58, (R)-1-(5-(3-methylmorpholino)-3-(1H-pyrazol-5-yl)isothiazolo[4,5-b]pyridin-7-yl)cyclohexane-1-carbonitrile] | < 100 nM | < 1 nM |
| Cc1cc(-c2nsc3c(C(C)(C)S(C)(=O)=O)cc(N4CCOC[C@H]4C)nc23)[nH]n1 [Example 56, (R)-3-methyl-4-(3-(3-methyl-1H-pyrazol-5-yl)-7-(2-(methylsulfonyl)propan-2-yl)isothiazolo[4,5-b]pyridin-5-yl)morpholine] | < 100 nM | 19 nM |
| C[C@@H]1COCCN1c1cc(-c2ccnn2C)n2ncc(-c3ccn[nH]3)c2n1 [Example 1, (R)-3-methyl-4-(7-(1-methyl-1H-pyrazol-5-yl)-3-(1H-pyrazol-5-yl)pyrazolo[1,5-a]pyrimidin-5-yl)morpholine] | < 100 nM | 491 nM |
| C[C@@H]1COCCN1c1cc(C2(C#N)CCCC2)c2snc(-c3ccn[nH]3)c2n1 [Example 57, (R)-1-(5-(3-methylmorpholino)-3-(1H-pyrazol-5-yl)isothiazolo[4,5-b]pyridin-7-yl)cyclopentane-1-carbonitrile] | < 100 nM | 2.5 nM |
| C[C@@H]1COCCN1c1cc(-c2cccnc2F)n2ncc(-c3ccn[nH]3)c2n1 [Example 6, (R)-4-(7-(2-fluoropyridin-3-yl)-3-(1H-pyrazol-5-yl)pyrazolo[1,5-a]pyrimidin-5-yl)-3-methylmorpholine] | < 100 nM | 803 nM |
| CS(=O)(=O)C1(c2cc(N3C[C@H]4CC[C@@H](C3)O4)nn3c(-c4ccn[nH]4)ncc23)CC1 [Example 32, (1R,5S)-3-(4-(1-(methylsulfonyl)cyclopropyl)-7-(1H-pyrazol-5-yl)imidazo[1,5-b]pyridazin-2-yl)-8-oxa-3-azabicyclo[3.2.1]octane] | < 100 nM | 553 nM |
| C[C@@H]1COCCN1c1cc(C2(C#N)CC2)c2snc(-c3ccn[nH]3)c2n1 [Example 51, (R)-1-(5-(3-methylmorpholino)-3-(1H-pyrazol-5-yl)isothiazolo[4,5-b]pyridin-7-yl)cyclopropane-1-carbonitrile] | < 100 nM | 15.9 nM |
| C[C@@H]1COCCN1c1cc(C(C)(C)S(C)(=O)=O)c2snc(-c3ccn[nH]3)c2n1 [Example 55, (R)-3-methyl-4-(7-(2-(methylsulfonyl)propan-2-yl)-3-(1H-pyrazol-5-yl)isothiazolo[4,5-b]pyridin-5-yl)morpholine] | < 100 nM | 13.7 nM |

Continued, values first:

| IC50 [1] | IC50 [2] | Compound |
| --- | --- | --- |
| < 100 nM | 10 nM | Cc1cc(-c2nsc3c(C4(C#N)CCCCC4)cc(N4CCOC[C@H]4C)nc23)[nH]n1 [Example 81, (R)-1-(3-(3-methyl-1H-pyrazol-5-yl)-5-(3-methylmorpholino)isothiazolo[4,5-b]pyridin-7-yl)cyclohexane-1-carbonitrile] |
| < 100 nM | < 1 nM | C[C@@H]1COCCN1c1cc(C2(C(N)=O)CCCCC2)c2snc(-c3ccn[nH]3)c2n1 [Example 89, 1-{5-[(3R)-3-methylmorpholin-4-yl]-3-(1H-pyrazol-5-yl)-[1,2]thiazolo[4,5-b]pyridin-7-yl}cyclohexane-1-carboxamide] |
| < 100 nM | 10 nM | Cc1cc(-c2nsc3c(C4(C#N)CCCC4)cc(N4CCOC[C@H]4C)nc23)[nH]n1 [Example 80, (R)-1-(3-(3-methyl-1H-pyrazol-5-yl)-5-(3-methylmorpholino)isothiazolo[4,5-b]pyridin-7-yl)cyclopentane-1-carbonitrile] |
| < 100 nM | 15.1 nM | Cc1cc(-c2ncc3c(C(C)(C)C#N)cc(N4CCOC[C@H]4C)nn23)[nH]n1 [Example 64, (R)-2-methyl-2-(7-(3-methyl-1H-pyrazol-5-yl)-2-(3-methylmorpholino)imidazo[1,5-b]pyridazin-4-yl)propanenitrile] |
| < 100 nM | 9 nM | Cc1cc(-c2nsc3c(C4(C#N)CCOCC4)cc(N4CCOC[C@H]4C)nc23)[nH]n1 [Example 84, (R)-4-(3-(3-methyl-1H-pyrazol-5-yl)-5-(3-methylmorpholino)isothiazolo[4,5-b]pyridin-7-yl)tetrahydro-2H-pyran-4-carbonitrile] |
| < 100 nM | 15.3 nM | C[C@@H]1COCCN1c1cc(S(=O)(=O)C2CC2)c2snc(-c3ccn[nH]3)c2n1 [Example 75, (R)-4-(7-(cyclopropylsulfonyl)-3-(1H-pyrazol-5-yl)isothiazolo[4,5-b]pyridin-5-yl)-3-methylmorpholine] |
| < 100 nM | 3 nM | Cc1cc(-c2nsc3c(C4(C(N)=O)CCCC4)cc(N4CCOC[C@H]4C)nc23)[nH]n1 [Example 87, (R)-1-(3-(3-methyl-1H-pyrazol-5-yl)-5-(3-methylmorpholino)isothiazolo[4,5-b]pyridin-7-yl)cyclopentane-1-carboxamide] |
| < 100 nM | 4 nM | Cc1cc(-c2nsc3c(S(=O)(=O)C4CC4)cc(N4CCOC[C@H]4C)nc23)[nH]n1 [Example 85, (R)-4-(7-(cyclopropylsulfonyl)-3-(3-methyl-1H-pyrazol-5-yl)isothiazolo[4,5-b]pyridin-5-yl)-3-methylmorpholine] |

Reference: patent US20230295166A1, “ATR INHIBITORS AND USES THEREOF” (ANTENGENE DISCOVERY LIMITED, priority 2020, published 2023)
